What all share (assay type): functional
Test [1] relates to Botrytis cinerea. Put plainly: Fungicidal activity against Botryotinia fuckeliana infected cucumber plant at 500 ppm by foliar application.
Test [2] relates to Podosphaera fuliginea. Put plainly: Fungicidal activity against Podosphaera fuliginea infected cucumber plant at 7.8 ppm by foliar application.
Test [3] deals with Botrytis cinerea. In words: Curative fungicidal activity against Botryotinia fuckeliana infected cucumber plant at 7.8 ppm by foliar application.
The test system of test [4] is Botrytis cinerea. In words: Curative fungicidal activity against Botryotinia fuckeliana infected cucumber plant at 31.3 ppm by foliar application.
Test [5] deals with Botrytis cinerea. In words: Preventive fungicidal activity against Botryotinia fuckeliana infected cucumber plant at 7.8 ppm by foliar application.
Test [6] relates to Botrytis cinerea. Put plainly: Preventive fungicidal activity against Botryotinia fuckeliana infected cucumber plant at 31.3 ppm by foliar application.
In test [7] the test system is Podosphaera fuliginea. In words: Curative fungicidal activity against Podosphaera fuliginea infected cucumber plant at 7.8 ppm by foliar application.
Test [8] deals with Podosphaera fuliginea. Put plainly: Curative fungicidal activity against Podosphaera fuliginea infected cucumber plant at 31.3 ppm by foliar application.
For test [9], the system named is Podosphaera fuliginea. Put plainly: Preventive fungicidal activity against Podosphaera fuliginea infected cucumber plant at 7.8 ppm by foliar application.
Test [10] has as its system Podosphaera fuliginea. In words: Preventive fungicidal activity against Podosphaera fuliginea infected cucumber plant at 31.3 ppm by foliar application.
The test system of test [11] is Botrytis cinerea. In words: Fungicidal activity against Botryotinia fuckeliana infected cucumber plant at 7.8 ppm by foliar application.
Test [12] has as its system Podosphaera fuliginea. Put plainly: Fungicidal activity against Podosphaera fuliginea infected cucumber plant at 500 ppm by foliar application.
For test [13], the system named is Podosphaera fuliginea. In words: Fungicidal activity against Podosphaera fuliginea infected cucumber plant at 31.3 ppm by foliar application.
The test system of test [14] is Botrytis cinerea. In words: Fungicidal activity against Botryotinia fuckeliana infected cucumber plant at 125 ppm by foliar application.
The test system of test [15] is Podosphaera fuliginea. In words: Fungicidal activity against Podosphaera fuliginea infected cucumber plant at 125 ppm by foliar application.
The subject of test [16] is Botrytis cinerea. Put plainly: Fungicidal activity against Botryotinia fuckeliana infected cucumber plant at 31.3 ppm by foliar application.

Some results are limits rather than exact numbers.

Regarding `CO/N=C(/c1nnco1)c1ccccc1COc1ccc(Cl)cc1Cl`, the figures for the Activity in the test with Botrytis cinerea [1] and in the test on Podosphaera fuliginea [2] were <50% and 90%, respectively.

In the case of `CO/N=C(\c1ccccc1COc1ccc(Cl)cc1C)c1nccn1C`, the Activity came out at 55% in the test on Botrytis cinerea [3]; 55% with Botrytis cinerea [4]; 60% with Botrytis cinerea [5]; 55% with Botrytis cinerea [6]; 100% with Podosphaera fuliginea [7]; 100% in the test on Podosphaera fuliginea [8]. In addition, the Activity with Podosphaera fuliginea [9] was 100%; in the test with Podosphaera fuliginea [10] it was 100%; in the test on Botrytis cinerea [11], <90%; in the test on Podosphaera fuliginea [2], 90%.

Take `CO/N=C(/c1ncn[nH]1)c1ccccc1COc1cc(C)ccc1C`: the Activity is recorded as <50% in the test on Botrytis cinerea [1] and <90% with Podosphaera fuliginea [12].

For `CO/N=C(\c1ccccc1COc1cc(C)ccc1C)c1ncnn1C`, the Activity is <50% in the test on Botrytis cinerea [1] and <90% in the test on Podosphaera fuliginea [12].

With `CO/N=C(\c1ccccc1COc1cc(C)ccc1C)c1nnnn1C`, the values for the Activity in the test with Botrytis cinerea [1] and in the test on Podosphaera fuliginea [12] were <50% and <90%, respectively.

As to `CO/N=C(/c1ncno1)c1ccccc1COc1cc(C)ccc1C`, the Activity with Botrytis cinerea [1] was <50%; in the test on Podosphaera fuliginea [12], <90%.

Turning to `CO/N=C(/c1ncon1)c1ccccc1COc1cc(C)ccc1C`, the Activity is recorded as <50% with Botrytis cinerea [1] and 90% in the test on Podosphaera fuliginea [13].

With `CO/N=C(/c1noc(C)n1)c1ccccc1COc1cc(C)ccc1C`, the Activity is recorded as <50% with Botrytis cinerea [1] and 90% in the test on Podosphaera fuliginea [13].

As to `CO/N=C(/c1nnco1)c1ccccc1COc1cc(C)ccc1C`, the Activity is on record as <90% in the test on Botrytis cinerea [14] and 90% in the test with Podosphaera fuliginea [2].

As for `CO/N=C(/c1nnc(C)o1)c1ccccc1COc1cc(C)ccc1C`, the Activity with Botrytis cinerea [1] is <50%; with Podosphaera fuliginea [2], 90%.

Turning to `CO/N=C(\c1ccccc1COc1cc(C)ccc1C)c1snnc1C`, the Activity in the test with Botrytis cinerea [1] is recorded as <50%; with Podosphaera fuliginea [15], 90%.

With `CO/N=C(\c1ccccc1COc1ccccc1)c1nccn1C`, the Activity in the test with Botrytis cinerea [1] is <50%; in the test with Podosphaera fuliginea [12], 90%.

`CO/N=C(\c1ccccc1COc1ccccc1Cl)c1nccn1C`: the Activity with Botrytis cinerea [1] is given as <50%; in the test on Podosphaera fuliginea [2], 90%.

`CO/N=C(\c1ccccc1COc1cccc(Cl)c1)c1nccn1C`: the figures for the Activity with Botrytis cinerea [1] and in the test with Podosphaera fuliginea [2] were <50% and 90%, respectively.

In the case of `CO/N=C(\c1ccccc1COc1ccc(Cl)cc1)c1nccn1C`, the values for the Activity in the test on Botrytis cinerea [1] and in the test with Podosphaera fuliginea [2] were <50% and 90%, respectively.

In the case of `CO/N=C(\c1ccccc1COc1ccccc1C)c1nccn1C`, the Activity with Botrytis cinerea [14] is on record as <90%; with Podosphaera fuliginea [2], 90%.

Consider `CO/N=C(\c1ccccc1COc1cccc(C)c1)c1nccn1C`, for which the results for the Activity in the test on Botrytis cinerea [1] and in the test on Podosphaera fuliginea [15] were <50% and 90%, respectively.

As for `CO/N=C(\c1ccccc1COc1ccc(C)cc1)c1nccn1C`, the Activity in the test on Botrytis cinerea [1] is reported as <50%; in the test with Podosphaera fuliginea [2], 90%.

`CO/N=C(\c1ccccc1COc1ccccc1OC)c1nccn1C`: the Activity in the test on Botrytis cinerea [1] was <50%; in the test on Podosphaera fuliginea [12], 90%.

With `CO/N=C(\c1ccccc1COc1ccc(Cl)cc1Cl)c1nccn1C`, the Activity in the test with Botrytis cinerea [1] is <50%; with Podosphaera fuliginea [2], 90%.

With `CO/N=C(\c1ccccc1COc1cc(Cl)ccc1Cl)c1nccn1C`, the Activity in the test with Botrytis cinerea [1] was <50%; in the test on Podosphaera fuliginea [2], 90%.

With `CO/N=C(/c1nnco1)c1ccccc1COc1ccccc1`, the results for the Activity with Botrytis cinerea [1] and in the test with Podosphaera fuliginea [13] were <50% and 90%, respectively.

`CO/N=C(/c1nnco1)c1ccccc1COc1ccccc1Cl`: the results for the Activity with Botrytis cinerea [1] and with Podosphaera fuliginea [13] were <50% and 90%, respectively.

In the case of `CO/N=C(/c1nnco1)c1ccccc1COc1cccc(Cl)c1`, the Activity is recorded as <50% in the test with Botrytis cinerea [1] and 90% with Podosphaera fuliginea [15].

Take `CO/N=C(/c1nnco1)c1ccccc1COc1ccc(Cl)cc1`: the figures for the Activity in the test on Botrytis cinerea [1] and in the test with Podosphaera fuliginea [12] were <50% and 90%, respectively.

As for `CO/N=C(/c1nnco1)c1ccccc1COc1ccccc1C`, the Activity is recorded as <90% in the test on Botrytis cinerea [14] and 90% with Podosphaera fuliginea [2].

`CO/N=C(/c1nnco1)c1ccccc1COc1cccc(C)c1`: the Activity in the test on Botrytis cinerea [1] was <50%; in the test with Podosphaera fuliginea [15] it was 90%.

With `CO/N=C(/c1nnco1)c1ccccc1COc1ccccc1OC`, the Activity with Botrytis cinerea [1] was <50%; in the test with Podosphaera fuliginea [12] it was 90%.

In the case of `CO/N=C(/c1nnco1)c1ccccc1COc1cc(Cl)ccc1Cl`, the Activity in the test with Botrytis cinerea [1] is on record as <50%; with Podosphaera fuliginea [2], 90%.

`CO/N=C(/c1nnco1)c1ccccc1COc1ccc(Cl)cc1C`: the Activity stood at 30% with Botrytis cinerea [3]; 50% with Botrytis cinerea [4]; 30% in the test with Botrytis cinerea [5]; 65% with Botrytis cinerea [6]; 100% with Podosphaera fuliginea [7]; 100% in the test on Podosphaera fuliginea [8]. The Activity in the test with Podosphaera fuliginea [9] was 100%; in the test with Podosphaera fuliginea [10] it was 100%; with Botrytis cinerea [16], <90%; in the test on Podosphaera fuliginea [2] it was 90%.

Consider `CO/N=C(/c1ccccc1COc1ccc(Cl)cc1C)c1nccn1C`, for which the Activity is reported as <50% with Botrytis cinerea [1] and 90% in the test on Podosphaera fuliginea [12].

Take `CO/N=C(\c1nnco1)c1ccccc1COc1ccc(Cl)cc1C`: the results for the Activity with Botrytis cinerea [1] and in the test with Podosphaera fuliginea [15] were <50% and 90%, respectively.

`CO/N=C(/c1ccon1)c1ccccc1COc1ccc(C)cc1C`: the Activity with Botrytis cinerea [3] amounted to 30%; in the test on Botrytis cinerea [4] it was 30%; in the test with Botrytis cinerea [5] it was 20%; in the test with Botrytis cinerea [6], 40%; in the test on Podosphaera fuliginea [7], 100%; in the test on Podosphaera fuliginea [8] it was 100%. The Activity in the test on Podosphaera fuliginea [9] and in the test on Podosphaera fuliginea [10] was 100% each time.

On to `CON=C(c1ccco1)c1ccccc1COc1cc(C)ccc1C` (mixture of isomers), for which the Activity was <50% with Botrytis cinerea [1] and 90% in the test with Podosphaera fuliginea [12].

Take `CON=C(c1cccs1)c1ccccc1COc1cc(C)ccc1C` (mixture of isomers): the Activity in the test with Botrytis cinerea [1] is reported as <50%; in the test on Podosphaera fuliginea [12], <90%.

Turning to `CON=C(c1ccccc1COc1cc(C)ccc1C)c1ccnn1C` (mixture of isomers), the Activity was <50% with Botrytis cinerea [1] and <90% in the test with Podosphaera fuliginea [12].

Take `CON=C(c1ccccc1COc1cc(C)ccc1C)c1nccn1C` (mixture of isomers): the Activity is <90% in the test with Botrytis cinerea [16] and 90% in the test on Podosphaera fuliginea [2].

On to `CON=C(c1cnco1)c1ccccc1COc1cc(C)ccc1C` (mixture of isomers), for which the Activity with Botrytis cinerea [1] is <50%; with Podosphaera fuliginea [12], 90%.

Consider `CON=C(c1nccs1)c1ccccc1COc1cc(C)ccc1C` (mixture of isomers), for which the Activity in the test with Botrytis cinerea [1] is listed as <50%; in the test on Podosphaera fuliginea [12] it was <90%.

For `CON=C(c1cc(C)ns1)c1ccccc1COc1cc(C)ccc1C` (mixture of isomers), the results for the Activity in the test with Botrytis cinerea [1] and in the test on Podosphaera fuliginea [12] were <50% and <90%, respectively.

Consider `CNC(=O)/C(=N/OC)c1ccccc1Oc1ccccc1` [METOMINOSTROBIN], for which the Activity in the test on Botrytis cinerea [3] stood at 30%; in the test with Botrytis cinerea [4], 40%; in the test with Botrytis cinerea [5], 30%; with Botrytis cinerea [6], 55%; with Podosphaera fuliginea [7] it was 70%; with Podosphaera fuliginea [8], 97%. Besides, the Activity in the test with Podosphaera fuliginea [9] worked out at 70%; in the test on Podosphaera fuliginea [10], 100%.

Source of the values: ChEMBL document CHEMBL3045270, “Synthesis and Fungicidal Activities of Heterocyclic Compounds Having -Methoxyimino-2-phenoxymethylbenzyl Group” (2000).
